{"source": "patent US20240197686A1", "about": "“ANTI-TUMORAL EFFECTIVE BENZIMIDAZOLE ZINC COMPLEXES” (INONU UNIVERSITESI REKTORLUGU, priority 2022, published 2024)", "key": {"[1]": {"test_system": "lung, liver, kidney tissues", "test": "Histology (H-E, light microscope) of lung, liver, kidney tissues of tumour developed nude rats", "type": "in vivo", "conditions": "for Histopathological damage in lung, liver and kidney tissues (overall): rat, in vivo", "from_the_text": "After […] operation; lung, liver, kidney tissues were taken and 10% were fixed in formaldehyde, and the sections prepared after their histological tissue follow-up procedures were examined with a light microscope."}, "Lung Cancer": {"test_system": "Lung Cancer", "conditions": "lung cancer treatment; cited from earlier work"}}, "note": "“Also recorded” adds a separate entry of the source.", "data": [{"smiles": "N.N.[Cl][Pt][Cl]", "note": "[Cisplatin, cis-diamminedichloroplatinum II]", "values": [{"measurement": "Kidney histology", "setting": "[1]; H-E sections", "result": "narrowing in glomerular Bowman's space (arrow), tubule epithelial damage; also recorded: Glomerular collapse and vascular congestion"}, {"measurement": "Liver histology", "setting": "[1]; H-E sections", "result": "hemorage (aster) in parenchymal area, vascular congestion; also recorded: hemorrhagic fields and vascular congestion in parenchyma"}, {"measurement": "Lung histology", "setting": "[1]; H-E sections", "result": "Secretion (aster) in bronchiole lumen, vascular congestion; also recorded: Secretion accumulations and vascular congestion"}, {"measurement": "Histopathological damage in lung, liver and kidney tissues (overall)", "setting": "[1]", "result": "caused tissue damages"}, {"measurement": "Histopathological damage in lung, liver and kidney tissues (overall)", "setting": "[1]; listed as cisplatin", "result": "causes histopathological damages in lung, liver and kidney tissues"}, {"measurement": "surviving", "setting": "Lung Cancer", "result": 6, "unit": "months"}]}]}
